Measured values: PubChem BioAssay (NCI)
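48-hour exposure; five concentrations; linearly interpolated endpoints. GI50: concentration for 50% inhibition of growth. TGI marks complete inhibition of growth.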

system: MDA-MB-435; assay: NCI-60 cell line screen, 48 h

| SMILES | TGI | GI50 |
| --- | --- | --- |
| CN1C(=O)c2ccccc2NC(=O)C12O[C@@H]2c1ccccc1 (some centres not stated) | > 100 µM | – |
| CC1(C)[C@@H]2CC[C@@]1(C)CN(CCC[N+](C)(C)C)C2 | > 100 µM | – |
| COc1cc(C(=O)N2CCN(C(=O)c3cc(OC)c(OC)c(OC)c3)C2=S)cc(OC)c1OC | 28.8 µM | 13.1 µM |
| O=C(CCn1ccnc1[N+](=O)[O-])NCCCn1ccnc1[N+](=O)[O-] | > 100 µM | – |
| O=[N+]([O-])C(=C(Nc1ccccc1)Nc1ccccc1)C(Cl)=C(Cl)Cl | 28.7 µM | – |
| O=C1NC(N2CCOCC2)=N/C1=C\c1ccco1 | > 100 µM | – |

system: A498 renal; assay: NCI-60 cell line screen, 48 h

| SMILES | TGI | GI50 |
| --- | --- | --- |
| CN1C(=O)c2ccccc2NC(=O)C12O[C@@H]2c1ccccc1 (some centres not stated) | > 100 µM | – |
| CC1(C)[C@@H]2CC[C@@]1(C)CN(CCC[N+](C)(C)C)C2 | > 100 µM | – |
| COc1cc(C(=O)N2CCN(C(=O)c3cc(OC)c(OC)c(OC)c3)C2=S)cc(OC)c1OC | 33 µM | 17.7 µM |
| O=C(CCn1ccnc1[N+](=O)[O-])NCCCn1ccnc1[N+](=O)[O-] | > 100 µM | – |
| O=[N+]([O-])C(=C(Nc1ccccc1)Nc1ccccc1)C(Cl)=C(Cl)Cl | 26.2 µM | – |

system: COLO 205 colon; assay: NCI-60 cell line screen, 48 h

| SMILES | TGI | GI50 |
| --- | --- | --- |
| CN1C(=O)c2ccccc2NC(=O)C12O[C@@H]2c1ccccc1 (some centres not stated) | > 100 µM | – |
| CC1(C)[C@@H]2CC[C@@]1(C)CN(CCC[N+](C)(C)C)C2 | > 100 µM | – |
| COc1cc(C(=O)N2CCN(C(=O)c3cc(OC)c(OC)c(OC)c3)C2=S)cc(OC)c1OC | 40.4 µM | 19.4 µM |
| O=C(CCn1ccnc1[N+](=O)[O-])NCCCn1ccnc1[N+](=O)[O-] | > 100 µM | – |
| O=[N+]([O-])C(=C(Nc1ccccc1)Nc1ccccc1)C(Cl)=C(Cl)Cl | 34.1 µM | – |
| O=C1NC(N2CCOCC2)=N/C1=C\c1ccco1 | > 100 µM | – |

system: SF-539 CNS; assay: NCI-60 cell line screen, 48 h

| SMILES | TGI | GI50 |
| --- | --- | --- |
| CN1C(=O)c2ccccc2NC(=O)C12O[C@@H]2c1ccccc1 (some centres not stated) | > 100 µM | – |
| CC1(C)[C@@H]2CC[C@@]1(C)CN(CCC[N+](C)(C)C)C2 | > 100 µM | – |
| COc1cc(C(=O)N2CCN(C(=O)c3cc(OC)c(OC)c(OC)c3)C2=S)cc(OC)c1OC | 30.2 µM | 14.5 µM |
| O=C(CCn1ccnc1[N+](=O)[O-])NCCCn1ccnc1[N+](=O)[O-] | > 100 µM | – |
| O=[N+]([O-])C(=C(Nc1ccccc1)Nc1ccccc1)C(Cl)=C(Cl)Cl | 35.4 µM | – |
| O=C1NC(N2CCOCC2)=N/C1=C\c1ccco1 | > 100 µM | – |

system: OVCAR-4 ovarian; assay: NCI-60 cell line screen, 48 h

| SMILES | TGI | GI50 |
| --- | --- | --- |
| CN1C(=O)c2ccccc2NC(=O)C12O[C@@H]2c1ccccc1 (some centres not stated) | > 100 µM | – |
| CC1(C)[C@@H]2CC[C@@]1(C)CN(CCC[N+](C)(C)C)C2 | > 100 µM | – |
| COc1cc(C(=O)N2CCN(C(=O)c3cc(OC)c(OC)c(OC)c3)C2=S)cc(OC)c1OC | 50.1 µM | 16.9 µM |
| O=C(CCn1ccnc1[N+](=O)[O-])NCCCn1ccnc1[N+](=O)[O-] | > 100 µM | – |
| O=[N+]([O-])C(=C(Nc1ccccc1)Nc1ccccc1)C(Cl)=C(Cl)Cl | 24.8 µM | – |
| O=C1NC(N2CCOCC2)=N/C1=C\c1ccco1 | > 100 µM | – |

system: SK-MEL-28 melanoma; assay: NCI-60 cell line screen, 48 h

| SMILES | TGI | GI50 |
| --- | --- | --- |
| CN1C(=O)c2ccccc2NC(=O)C12O[C@@H]2c1ccccc1 (some centres not stated) | > 100 µM | – |
| CC1(C)[C@@H]2CC[C@@]1(C)CN(CCC[N+](C)(C)C)C2 | > 100 µM | – |
| COc1cc(C(=O)N2CCN(C(=O)c3cc(OC)c(OC)c(OC)c3)C2=S)cc(OC)c1OC | 35.5 µM | 17.2 µM |
| O=C(CCn1ccnc1[N+](=O)[O-])NCCCn1ccnc1[N+](=O)[O-] | > 100 µM | – |
| O=[N+]([O-])C(=C(Nc1ccccc1)Nc1ccccc1)C(Cl)=C(Cl)Cl | 35.7 µM | – |
| O=C1NC(N2CCOCC2)=N/C1=C\c1ccco1 | > 100 µM | – |

system: UACC-62 melanoma; assay: NCI-60 cell line screen, 48 h

| SMILES | TGI | GI50 |
| --- | --- | --- |
| CN1C(=O)c2ccccc2NC(=O)C12O[C@@H]2c1ccccc1 (some centres not stated) | > 100 µM | – |
| CC1(C)[C@@H]2CC[C@@]1(C)CN(CCC[N+](C)(C)C)C2 | > 100 µM | – |
| COc1cc(C(=O)N2CCN(C(=O)c3cc(OC)c(OC)c(OC)c3)C2=S)cc(OC)c1OC | 29.9 µM | 14.9 µM |
| O=C(CCn1ccnc1[N+](=O)[O-])NCCCn1ccnc1[N+](=O)[O-] | > 100 µM | – |
| O=[N+]([O-])C(=C(Nc1ccccc1)Nc1ccccc1)C(Cl)=C(Cl)Cl | 32.2 µM | – |
| O=C1NC(N2CCOCC2)=N/C1=C\c1ccco1 | > 100 µM | – |

system: SF-268 CNS; assay: NCI-60 cell line screen, 48 h

| SMILES | TGI | GI50 |
| --- | --- | --- |
| CN1C(=O)c2ccccc2NC(=O)C12O[C@@H]2c1ccccc1 (some centres not stated) | > 100 µM | – |
| CC1(C)[C@@H]2CC[C@@]1(C)CN(CCC[N+](C)(C)C)C2 | > 100 µM | – |
| COc1cc(C(=O)N2CCN(C(=O)c3cc(OC)c(OC)c(OC)c3)C2=S)cc(OC)c1OC | 26.1 µM | 11.5 µM |
| O=C(CCn1ccnc1[N+](=O)[O-])NCCCn1ccnc1[N+](=O)[O-] | > 100 µM | – |
| O=[N+]([O-])C(=C(Nc1ccccc1)Nc1ccccc1)C(Cl)=C(Cl)Cl | 40 µM | – |
| O=C1NC(N2CCOCC2)=N/C1=C\c1ccco1 | > 100 µM | – |

system: NCI-H522 lung; assay: NCI-60 cell line screen, 48 h

| SMILES | TGI | GI50 |
| --- | --- | --- |
| CN1C(=O)c2ccccc2NC(=O)C12O[C@@H]2c1ccccc1 (some centres not stated) | > 100 µM | – |
| CC1(C)[C@@H]2CC[C@@]1(C)CN(CCC[N+](C)(C)C)C2 | > 100 µM | – |
| COc1cc(C(=O)N2CCN(C(=O)c3cc(OC)c(OC)c(OC)c3)C2=S)cc(OC)c1OC | 16.3 µM | 3.67 µM |
| O=C(CCn1ccnc1[N+](=O)[O-])NCCCn1ccnc1[N+](=O)[O-] | > 100 µM | – |
| O=[N+]([O-])C(=C(Nc1ccccc1)Nc1ccccc1)C(Cl)=C(Cl)Cl | 39.6 µM | – |
| O=C1NC(N2CCOCC2)=N/C1=C\c1ccco1 | > 100 µM | – |

system: OVCAR-8 ovarian; assay: NCI-60 cell line screen, 48 h

| SMILES | TGI | GI50 |
| --- | --- | --- |
| CN1C(=O)c2ccccc2NC(=O)C12O[C@@H]2c1ccccc1 (some centres not stated) | > 100 µM | – |
| CC1(C)[C@@H]2CC[C@@]1(C)CN(CCC[N+](C)(C)C)C2 | > 100 µM | – |
| COc1cc(C(=O)N2CCN(C(=O)c3cc(OC)c(OC)c(OC)c3)C2=S)cc(OC)c1OC | 45.9 µM | 21.9 µM |
| O=C(CCn1ccnc1[N+](=O)[O-])NCCCn1ccnc1[N+](=O)[O-] | > 100 µM | – |
| O=[N+]([O-])C(=C(Nc1ccccc1)Nc1ccccc1)C(Cl)=C(Cl)Cl | 48.5 µM | – |
| O=C1NC(N2CCOCC2)=N/C1=C\c1ccco1 | > 100 µM | – |

system: M14 melanoma; assay: NCI-60 cell line screen, 48 h

| SMILES | TGI | GI50 |
| --- | --- | --- |
| CN1C(=O)c2ccccc2NC(=O)C12O[C@@H]2c1ccccc1 (some centres not stated) | > 100 µM | – |
| CC1(C)[C@@H]2CC[C@@]1(C)CN(CCC[N+](C)(C)C)C2 | > 100 µM | – |
| COc1cc(C(=O)N2CCN(C(=O)c3cc(OC)c(OC)c(OC)c3)C2=S)cc(OC)c1OC | 34 µM | 16.8 µM |
| O=C(CCn1ccnc1[N+](=O)[O-])NCCCn1ccnc1[N+](=O)[O-] | > 100 µM | – |
| O=[N+]([O-])C(=C(Nc1ccccc1)Nc1ccccc1)C(Cl)=C(Cl)Cl | 36.1 µM | – |
| O=C1NC(N2CCOCC2)=N/C1=C\c1ccco1 | > 100 µM | – |

system: HS 578T breast; assay: NCI-60 cell line screen, 48 h

| SMILES | TGI | GI50 |
| --- | --- | --- |
| CN1C(=O)c2ccccc2NC(=O)C12O[C@@H]2c1ccccc1 (some centres not stated) | > 100 µM | – |
| CC1(C)[C@@H]2CC[C@@]1(C)CN(CCC[N+](C)(C)C)C2 | > 100 µM | – |
| COc1cc(C(=O)N2CCN(C(=O)c3cc(OC)c(OC)c(OC)c3)C2=S)cc(OC)c1OC | > 100 µM | 24.7 µM |
| O=C(CCn1ccnc1[N+](=O)[O-])NCCCn1ccnc1[N+](=O)[O-] | > 100 µM | – |
| O=[N+]([O-])C(=C(Nc1ccccc1)Nc1ccccc1)C(Cl)=C(Cl)Cl | 55.5 µM | – |
| O=C1NC(N2CCOCC2)=N/C1=C\c1ccco1 | > 100 µM | – |

system: HCT-116 colon; assay: NCI-60 cell line screen, 48 h

| SMILES | TGI | GI50 |
| --- | --- | --- |
| CN1C(=O)c2ccccc2NC(=O)C12O[C@@H]2c1ccccc1 (some centres not stated) | > 100 µM | – |
| CC1(C)[C@@H]2CC[C@@]1(C)CN(CCC[N+](C)(C)C)C2 | > 100 µM | – |
| COc1cc(C(=O)N2CCN(C(=O)c3cc(OC)c(OC)c(OC)c3)C2=S)cc(OC)c1OC | 33.1 µM | 18.2 µM |
| O=C(CCn1ccnc1[N+](=O)[O-])NCCCn1ccnc1[N+](=O)[O-] | > 100 µM | – |
| O=[N+]([O-])C(=C(Nc1ccccc1)Nc1ccccc1)C(Cl)=C(Cl)Cl | 25.5 µM | – |
| O=C1NC(N2CCOCC2)=N/C1=C\c1ccco1 | > 100 µM | – |

system: UACC-257 melanoma; assay: NCI-60 cell line screen, 48 h

| SMILES | TGI | GI50 |
| --- | --- | --- |
| CN1C(=O)c2ccccc2NC(=O)C12O[C@@H]2c1ccccc1 (some centres not stated) | > 100 µM | – |
| CC1(C)[C@@H]2CC[C@@]1(C)CN(CCC[N+](C)(C)C)C2 | > 100 µM | – |
| COc1cc(C(=O)N2CCN(C(=O)c3cc(OC)c(OC)c(OC)c3)C2=S)cc(OC)c1OC | 43.9 µM | 21.7 µM |
| O=C(CCn1ccnc1[N+](=O)[O-])NCCCn1ccnc1[N+](=O)[O-] | > 100 µM | – |
| O=[N+]([O-])C(=C(Nc1ccccc1)Nc1ccccc1)C(Cl)=C(Cl)Cl | 30.7 µM | – |
| O=C1NC(N2CCOCC2)=N/C1=C\c1ccco1 | > 100 µM | – |
